# Measurements reported in PubChem BioAssay (NCI).
#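 Results reflect a 48-hour exposure of cells in 96-well plates to compound at five concentrations. TGI: concentration producing complete growth inhibition.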
# Columns and labels:
# Test in all cases: DTP human tumour cell line panel, 48 h
# 786-0 renal = test system: 786-0 renal
# A498 renal = test system: A498 renal
# A549 NSCLC = test system: A549 NSCLC
# ACHN renal = test system: ACHN renal
# BT-549 breast = test system: BT-549 breast
# CAKI-1 renal = test system: CAKI-1 renal
# CCRF-CEM leukemia = test system: CCRF-CEM leukemia
# COLO 205 colon = test system: COLO 205 colon
# DU-145 prostate = test system: DU-145 prostate
# EKVX NSCLC = test system: EKVX NSCLC
# HCC-2998 colon = test system: HCC-2998 colon
# HCT-116 colon = test system: HCT-116 colon
# HCT-15 colon = test system: HCT-15 colon
# HOP-62 NSCLC = test system: HOP-62 NSCLC
# HS 578T breast = test system: HS 578T breast
# HT29 colon = test system: HT29 colon
# IGROV1 ovarian = test system: IGROV1 ovarian
# K-562 leukemia = test system: K-562 leukemia
# KM12 colon = test system: KM12 colon
# LOX IMVI melanoma = test system: LOX IMVI melanoma
# M14 melanoma = test system: M14 melanoma
# MALME-3M melanoma = test system: MALME-3M melanoma
# MCF7 breast = test system: MCF7 breast
# MDA-MB-231 breast = test system: MDA-MB-231 breast
# MDA-MB-435 = test system: MDA-MB-435
# MDA-N = test system: MDA-N
# MOLT-4 leukemia = test system: MOLT-4 leukemia
# NCI-H23 lung = test system: NCI-H23 lung
# NCI-H460 lung = test system: NCI-H460 lung
# NCI-H522 lung = test system: NCI-H522 lung
# NCI/ADR-RES ovarian = test system: NCI/ADR-RES ovarian
# OVCAR-3 ovarian = test system: OVCAR-3 ovarian
# OVCAR-4 ovarian = test system: OVCAR-4 ovarian
# OVCAR-5 ovarian = test system: OVCAR-5 ovarian
# OVCAR-8 ovarian = test system: OVCAR-8 ovarian
# PC-3 prostate = test system: PC-3 prostate
# RPMI-8226 leukemia = test system: RPMI-8226 leukemia
# RXF 393 renal = test system: RXF 393 renal
# SF-268 CNS = test system: SF-268 CNS
# SF-295 CNS = test system: SF-295 CNS
# SF-539 CNS = test system: SF-539 CNS
# SK-MEL-2 melanoma = test system: SK-MEL-2 melanoma
# SK-MEL-28 melanoma = test system: SK-MEL-28 melanoma
# SK-MEL-5 melanoma = test system: SK-MEL-5 melanoma
# SK-OV-3 ovarian = test system: SK-OV-3 ovarian
# SN12C renal = test system: SN12C renal
# SNB-19 CNS = test system: SNB-19 CNS
# SR leukemia = test system: SR leukemia
# SW-620 colon = test system: SW-620 colon
# T-47D breast = test system: T-47D breast
# TK-10 renal = test system: TK-10 renal
# U251 CNS = test system: U251 CNS
# UACC-257 melanoma = test system: UACC-257 melanoma
# UACC-62 melanoma = test system: UACC-62 melanoma
# UO-31 renal = test system: UO-31 renal
# HL-60(TB) leukemia = test system: HL-60(TB) leukemia
# HOP-92 NSCLC = test system: HOP-92 NSCLC
# NCI-H226 lung = test system: NCI-H226 lung
# SNB-75 CNS = test system: SNB-75 CNS
compound,measurement,setting,value
Cc1ccc(S(=O)(=O)NCCN(CCNS(=O)(=O)c2ccc(C)cc2)S(=O)(=O)c2ccc(C)cc2)cc1,TGI,786-0 renal,> 100 µM
same,TGI,A498 renal,> 100 µM
same,TGI,A549 NSCLC,> 100 µM
same,TGI,ACHN renal,> 100 µM
same,TGI,BT-549 breast,> 100 µM
same,TGI,CAKI-1 renal,> 100 µM
same,TGI,CCRF-CEM leukemia,> 100 µM
same,TGI,COLO 205 colon,> 100 µM
same,TGI,DU-145 prostate,> 100 µM
same,TGI,EKVX NSCLC,> 100 µM
same,TGI,HCC-2998 colon,> 100 µM
same,TGI,HCT-116 colon,> 100 µM
same,TGI,HCT-15 colon,> 100 µM
same,TGI,HOP-62 NSCLC,> 100 µM
same,TGI,HS 578T breast,> 100 µM
same,TGI,HT29 colon,> 100 µM
same,TGI,IGROV1 ovarian,> 100 µM
same,TGI,K-562 leukemia,> 100 µM
same,TGI,KM12 colon,> 100 µM
same,TGI,LOX IMVI melanoma,> 100 µM
same,TGI,M14 melanoma,> 100 µM
same,TGI,MALME-3M melanoma,60 µM
same,TGI,MCF7 breast,> 100 µM
same,TGI,MDA-MB-231 breast,> 100 µM
same,TGI,MDA-MB-435,> 100 µM
same,TGI,MDA-N,> 100 µM
same,TGI,MOLT-4 leukemia,> 100 µM
same,TGI,NCI-H23 lung,> 100 µM
same,TGI,NCI-H460 lung,> 100 µM
same,TGI,NCI-H522 lung,> 100 µM
same,TGI,NCI/ADR-RES ovarian,> 100 µM
same,TGI,OVCAR-3 ovarian,> 100 µM
same,TGI,OVCAR-4 ovarian,56 µM
same,TGI,OVCAR-5 ovarian,> 100 µM
same,TGI,OVCAR-8 ovarian,> 100 µM
same,TGI,PC-3 prostate,> 100 µM
same,TGI,RPMI-8226 leukemia,> 100 µM
same,TGI,RXF 393 renal,> 100 µM
same,TGI,SF-268 CNS,> 100 µM
same,TGI,SF-295 CNS,> 100 µM
same,TGI,SF-539 CNS,> 100 µM
same,TGI,SK-MEL-2 melanoma,> 100 µM
same,TGI,SK-MEL-28 melanoma,> 100 µM
same,TGI,SK-MEL-5 melanoma,> 100 µM
same,TGI,SK-OV-3 ovarian,> 100 µM
same,TGI,SN12C renal,> 100 µM
same,TGI,SNB-19 CNS,> 100 µM
same,TGI,SR leukemia,> 100 µM
same,TGI,SW-620 colon,> 100 µM
same,TGI,T-47D breast,> 100 µM
same,TGI,TK-10 renal,> 100 µM
same,TGI,U251 CNS,> 100 µM
same,TGI,UACC-257 melanoma,> 100 µM
same,TGI,UACC-62 melanoma,> 100 µM
same,TGI,UO-31 renal,> 100 µM
CCOC(=O)/C=C(/OCC)[C@@H]1C(C(=O)c2ccc(Cl)cc2)[C@H]1/C(=C\C(=O)OCC)OCC (stereo partly drawn),TGI,786-0 renal,> 100 µM
same,TGI,A498 renal,> 100 µM
same,TGI,A549 NSCLC,> 100 µM
same,TGI,ACHN renal,> 100 µM
same,TGI,BT-549 breast,> 100 µM
same,TGI,CAKI-1 renal,> 100 µM
same,TGI,CCRF-CEM leukemia,> 100 µM
same,TGI,COLO 205 colon,> 100 µM
same,TGI,DU-145 prostate,> 100 µM
same,TGI,EKVX NSCLC,> 100 µM
same,TGI,HCT-116 colon,> 100 µM
same,TGI,HCT-15 colon,> 100 µM
same,TGI,HL-60(TB) leukemia,> 100 µM
same,TGI,HOP-62 NSCLC,> 100 µM
same,TGI,HOP-92 NSCLC,> 100 µM
same,TGI,HS 578T breast,> 100 µM
same,TGI,HT29 colon,> 100 µM
same,TGI,IGROV1 ovarian,> 100 µM
same,TGI,K-562 leukemia,> 25.2 µM
same,TGI,KM12 colon,> 100 µM
same,TGI,LOX IMVI melanoma,> 100 µM
same,TGI,M14 melanoma,> 100 µM
same,TGI,MALME-3M melanoma,> 100 µM
same,TGI,MCF7 breast,> 100 µM
same,TGI,MDA-MB-231 breast,> 100 µM
same,TGI,MDA-MB-435,> 100 µM
same,TGI,MDA-N,> 100 µM
same,TGI,MOLT-4 leukemia,> 100 µM
same,TGI,NCI-H226 lung,> 100 µM
same,TGI,NCI-H23 lung,> 100 µM
same,TGI,NCI-H460 lung,> 100 µM
same,TGI,NCI-H522 lung,> 100 µM
same,TGI,NCI/ADR-RES ovarian,> 100 µM
same,TGI,OVCAR-3 ovarian,> 100 µM
same,TGI,OVCAR-4 ovarian,> 100 µM
same,TGI,OVCAR-5 ovarian,> 100 µM
same,TGI,OVCAR-8 ovarian,> 100 µM
same,TGI,PC-3 prostate,> 100 µM
same,TGI,RPMI-8226 leukemia,> 28.8 µM
same,TGI,RXF 393 renal,> 100 µM
same,TGI,SF-268 CNS,> 100 µM
same,TGI,SF-295 CNS,> 100 µM
same,TGI,SF-539 CNS,> 100 µM
same,TGI,SK-MEL-2 melanoma,> 100 µM
same,TGI,SK-MEL-28 melanoma,> 100 µM
same,TGI,SK-MEL-5 melanoma,> 100 µM
same,TGI,SK-OV-3 ovarian,> 100 µM
same,TGI,SN12C renal,> 100 µM
same,TGI,SNB-19 CNS,> 100 µM
same,TGI,SNB-75 CNS,> 100 µM
same,TGI,SR leukemia,> 23.6 µM
same,TGI,SW-620 colon,> 100 µM
same,TGI,T-47D breast,> 100 µM
same,TGI,TK-10 renal,> 100 µM
same,TGI,U251 CNS,> 100 µM
same,TGI,UACC-257 melanoma,> 100 µM
same,TGI,UACC-62 melanoma,> 100 µM
same,TGI,UO-31 renal,> 100 µM
